# From patent EP2949339A1, “Agonist of CD1c-restricted T cells and uses thereof” (Ospedale San Raffaele S.r.l., priority 2014, dated 2015)
# Legend:
# [1] = tested on: CD1c self-reactive T cells; assay: T cell activation assay with lipid-pulsed CD1c+ APCs (GM-CSF and/or IFN-γ release, ELISA); assay type: cell-based, human; conditions: same T cells; data not shown
# Experimental: T cell activation assays were performed by co-culturing the indicated numbers of target cells (5x10^4/well unless otherwise indicated) with T cells (5x10^4/well) in 200µl volume in duplicate or triplicate cultures. In some experiments, mouse anti-CD1c (L161, Abcam) or mouse IgG1 isotype control mAbs were added and incubated for 30 min prior to the addition of T cells. Supernatants were collected after 24-48 hours and cytokines released by T cells (GM-CSF and/or IFN-γ) were measured by ELISA. In assays using fractionated lipids, THP1-CD1c cells (5x10^4/well) were fixed with 0.05% glutaraldehyde for 20 s and used as APCs. Fold change in cytokine release was calculated using the following formula: GM-CSF release with lipid pulsed APC / GM-CSF release with un-pulsed APC. In some experiments, normal B cells purified from PBMCs (5x10^4/well) were used as APCs without prior fixation. APCs were pulsed with lipids for 4 hours at the indicated dilutions before addition of T cells.
# [2] = tested on: CD1c self-reactive T cells; assay: sCD1c-plate-bound T cell activation assay; assay type: cell-based, human; conditions: CD1c self-reactive clones DN4.99, K34A27f; GM-CSF release; Fig. 1E, 3 C
# Experimental: sCD1c-plate-bound assays were performed using MaxiSorp plates (Nunc) coated with anti-BirA mAb (Nowbakht et al., 2005) to capture sCD1c and were then incubated with lipids for 6 hours. The wells were extensively washed before addition of T cells.
# Recombinant soluble human CD1c tagged with BirA peptide (sCD1c), was obtained and purified using techniques similar to those previously described (Garcia-Alles et al., 2006). The following primers were used to PCR amplify the extracellular domain of human CD1c: forward XhoI 5'- […] (SEQ ID No. 3) and reverse ClaI 5'-[…] (SEQ ID No. 4). sCD1c was purified from J558-transfected cell culture supernatants by affinity chromatography using anti-CD1c mAb (10C3, BD Pharmingen).
Substance,doses at which T cells were very weakly stimulated [1],stimulation of T cells by lipid presented by plastic-bound sCD1c [2]
lysophosphatidic acid [LPA],above 50 µg/ml,–
lysophosphatidylcholine [LPC],above 50 µg/ml,–
lysophosphatidylethanolamine [LPE],above 50 µg/ml,–
sulfatide,–,failed to stimulate
